From patent publication US9884891B2, “KISS1R receptor agonist compounds and use thereof for inducing ovulation in mammals” (INSTITUT NATIONAL DE LA RECHERCHE AGRONOMIQUE, priority 2013, dated 2018)
pEC50: −log10 of the molar value. Like-named read-outs stand apart in the source and are kept apart here. Where a SMILES comes first, the peptide text is derived from it.

Experiments:
[1] = Test for proteolytic degradation of the peptide compounds in ovine serum; assay type: in vitro ADME, ewes of the Ile de France breed; settings: for remaining at 3 h, 50 μM: female, Ile de France, sheep
Description: In order to carry out this test, blood was collected from the jugular vein of ewes of the Ile de France breed, and centrifuged. The supernatant (serum) was stored at −20° C. until use.
The degradation in this serum of the various peptide compounds in accordance with the invention and of the comparative peptide compounds is monitored over time. To this effect, each peptide compound to be analyzed and the internal calibrant (L-phenylalaninol) are dissolved in milliQ water (0.5 mM and 6.6 mM, respectively). The commercial protease inhibitor cocktail (Sigma, ref. P8340) is supplied in solution in DMSO.
The serum and the stock solutions of peptide compounds are preheated at 39° C. for 30 minutes. Each solution of peptide compound (50 μl, i.e. a final concentration in the serum of 50 μM) and the solution of internal calibrant (25 μl) are mixed with 425 μl of serum and incubated at 39° C. The proteolytic degradation kinetics of the compounds are monitored by taking a sample, at various given times, of 75 μl of the solution, which are diluted with 150 μL of acetonitrile in order to precipitate the serum proteins. The suspension obtained is centrifuged at 14 000 revolutions/min for 10 min at 4° C.
The amount of peptide compound intact after incubation is determined by integration of the area of the peak, using L-phenylalaninol as internal calibrant. It is expressed as % of the area of the peak at time t=0.
The value corresponding to 100% of intact peptide compound is obtained by mixing 420 μl of serum, 5 μl of the inhibitor cocktail and 25 μl of the phenylalaninol solution, followed by 50 μl of peptide compound, and then by immediately treating the resulting solution according to the protocol described above.

[2] = molecular target: T1, human KISS1R receptor (Homo sapiens, UniProt Q969F8); assay: Intracellular calcium mobilization test in HEK293A cells expressing human KISS1R; assay type: cell-based
T1 construct: expressed in transfected cells
T1 sequence (Q969F8 whole entry): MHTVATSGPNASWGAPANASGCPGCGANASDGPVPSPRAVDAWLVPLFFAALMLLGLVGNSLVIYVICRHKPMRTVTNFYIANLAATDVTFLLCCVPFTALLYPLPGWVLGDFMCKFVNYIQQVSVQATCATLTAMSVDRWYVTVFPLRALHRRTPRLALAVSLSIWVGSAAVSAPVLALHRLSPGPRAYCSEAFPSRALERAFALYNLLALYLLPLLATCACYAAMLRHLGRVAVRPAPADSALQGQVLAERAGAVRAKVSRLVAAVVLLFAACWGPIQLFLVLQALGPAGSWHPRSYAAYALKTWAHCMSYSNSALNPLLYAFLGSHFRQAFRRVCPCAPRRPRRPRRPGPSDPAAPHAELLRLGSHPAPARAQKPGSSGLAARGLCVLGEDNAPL

[3] = system: plasma LH concentration; assay: In vivo activity test: plasma LH concentration in ewes after injection of the peptide compound; set-up: species or system ewes of the Ile de France breed; settings: for increase in the plasma concentration of LH (% of Comp.1 maximum stimulation): FIG. 4
Description: The tests were carried out on ewes of the Ile de France breed, either in the anestrus period for the comparative compounds Comp.1 and Comp.3, or in the estrus period for the comparative compound Comp.1 and for the compounds in accordance with the invention C1, C4 and C6. The ewes used in the estrus period were pretreated with a vaginal sponge containing 20 mg of fluorogestone acetate (Chronogest CR sponge, Intervet) in order to block the secretion of LH and to stimulate a luteal phase.
Five days after the insertion of the sponge (for the animals in the estrus period) or the day before the test (for the animals in the anestrus period), a catheter was inserted into the jugular vein of the animal. On the day of the test, the peptide compound to be tested was injected into the catheter, at the desired dose (5 nmol/ewe), diluted in 1 ml of physiological solution. Physiological saline containing heparin (3 ml) was injected immediately after the peptide compound in order to rinse the catheter and to carry all of the compound into the animal's bloodstream.
A negative control (T) consisting of physiological solution alone was also carried out.
Before and following the injection of the test compound, blood samples were taken at variable intervals between 10 min and 1 h, for a period of between 3 h and 30 h.
The blood samples were centrifuged, and the plasma was stored at −20° C. until it was used to measure the LH concentration, according to an RIA method described in the literature (Caraty et al., 2007).
The tests were carried out on ewes of the Ile de France breed in the anestrus period, in the same way as above with reference to the 1st experiment (without any treatment with progesterone). In particular, for all the animals, the day before the test, a catheter was inserted into the jugular vein of the animal. On the day of the test, the peptide compound to be tested was injected into the catheter, at the desired dose (5 nmol/ewe), diluted in 1 ml of physiological solution.
The tests were carried out on ewes of the Ile de France breed in the anestrus period, as indicated above with reference to the 1st experiment (without any treatment with progesterone). In particular, for all the animals, the day before the test, a catheter was inserted into the jugular vein of the animal. On the day of the test, the peptide compound to be tested was injected into the catheter, at the desired dose, diluted in 1 ml of physiological solution. For each compound, the following three doses were tested: 1 nmol/ewe, 5 nmol/ewe and 15 nmol/ewe. […]
Before and following the injection of the test compound, blood samples were taken at variable intervals between 10 min and 1 h, for a period of 10 h.
The blood samples were centrifuged, and the plasma was stored at −20° C. until it was used to measure the LH concentration, according to the RIA method described in the literature (Caraty et al., 2007).

[4] = system: LH peak / ovulation; settings: cited from earlier work
[5] = 1st experiment, ewes in the estrus period, 5 nmol/ewe intravenous
[6] = intravenous, ewes at the end of the follicular phase
[7] = 2nd experiment, ewes in the anestrus period, 5 nmol/ewe intravenous, FIGS. 6a-6d

Molecule: CNC(=N)NCCC[C@H](NC(=O)[C@H](CC(C)C)n1cc(CNC(=O)[C@H](Cc2ccccc2)NC(=O)[C@@H](NC(=O)[C@H](CC(N)=O)NC(=O)[C@@H](Cc2c[nH]c3ccccc23)NC(=O)[C@@H](Cc2ccc(O)cc2)NC(C)=O)[C@@H](C)O)nn1)C(=O)N[C@@H](Cc1c[nH]c2ccccc12)C(N)=O [Compound C6, Ac-DTyr-DTrp-Asn-Thr-Phe-GlyΨ[Tz]Leu-Arg(Me)-Trp-NH2] (HELM PEPTIDE1{[ac].[dY].[dW].N.T.F.[CC(C)C[C@@H](C(=O)[*:2])n1cc(CN[*:1])nn1].[CNC(=N)NCCC[C@H](N[*:1])C(=O)[*:2]].W.[am]}$$$$V2.0)
- remaining at 3 h, 50 μM ([1]; serum): 50%
- pEC50 ([2]; HEK293A cells expressing human KISS1R, Fluo-4NW, read-out: EC50, intracellular calcium mobilization of cells expressing human KISS1R (Table 2)): 11.00
- increase in the plasma concentration of LH (% of Comp.1 maximum stimulation) [3, 5]: more active than the comparative compounds Comp.1 and Comp.3

Molecule: Ac-YNWNSFGLRY-NH2 [Comp. 3, reference compound]
- remaining at 3 h, 50 μM ([1]; ovine serum, 39° C., 50 μM, 3 h, % of the area of the HPLC peak at time t = 0, read-out: % of peptide intact after 3 h of incubation in the serum): 11%
- human KISS1R-stimulating power (in words) ([2]; calcium mobilization, compared with Comp.1): more powerful than Comp.1 (mKP10) in vitro
- efficiency and duration of the elevation of the plasma LH concentration ([3]; 1st experiment, ewes in the anestrus period, 5 nmol/ewe intravenous, FIG. 3, versus Comp.1): only minimally increases

Molecule: KP10: decapeptide kisspeptin-10, endogenous KISS1R ligand; species form not stated for the cited ewe studies
- induction of an LH peak [4, 6]: capable of inducing an LH peak
- synchronization of ovulations [4, 6]: synchronized to within one hour
- time from LH peak to ovulations [4, 6]: 21 h
- reactivation of the gonadotropic axis and ovulation ([4]; prolonged infusion, period of sexual rest (seasonal anestrus)): capable of reactivating the gonadotropic axis and inducing ovulation

Molecule: CC(=O)N[C@@H](Cc1ccc(O)cc1)C(=O)N[C@@H](CC(N)=O)C(=O)N[C@@H](Cc1c[nH]c2ccccc12)C(=O)N[C@@H](CC(N)=O)C(=O)N[C@@H](CO)C(=O)N[C@@H](Cc1ccccc1)C(=O)NCc1cn([C@@H](CC(C)C)C(=O)N[C@@H](CCCNC(=N)N)C(=O)N[C@@H](Cc2ccc(O)cc2)C(N)=O)nn1 [Compound C2, Ac-Tyr-Asn-Trp-Asn-Ser-Phe-GlyΨ[Tz]Leu-Arg-Tyr-NH2] (HELM PEPTIDE1{[ac].Y.N.W.N.S.F.[CC(C)C[C@@H](C(=O)[*:2])n1cc(CN[*:1])nn1].R.Y.[am]}$$$$V2.0)
- lifetime in ovine serum (in words) [1]: clearly prolonged in comparison with that of the comparative peptide compound Comp.3
- remaining at 3 h, 50 μM ([1]; serum): 46%
- total increase in the plasma LH concentration (AUC) over 9 hours ([3]; 2nd experiment, ewes in the anestrus period, 5 nmol/ewe intravenous, FIG. 7): significantly more active than the comparative compounds
- duration of action (LH concentration over time) [3, 7]: sustained for longer over time than the comparative compounds Comp.1 and Comp.3

Molecule: CC(C)C[C@@H](C(=O)N[C@@H](CCCNC(=N)N)C(=O)N[C@@H](Cc1ccc(O)cc1)C(N)=O)n1cc(CNC(=O)[C@H](Cc2ccccc2)NC(=O)[C@H](CO)NC(=O)[C@H](CC(N)=O)NC(=O)[C@H](Cc2c[nH]c3ccccc23)NC(=O)[C@H](CC(N)=O)NC(=O)[C@@H](N)Cc2ccc(O)cc2)nn1 [Compound C1, H-Tyr-Asn-Trp-Asn-Ser-Phe-GlyΨ[Tz]Leu-Arg-Tyr-NH2] (HELM PEPTIDE1{Y.N.W.N.S.F.[CC(C)C[C@@H](C(=O)[*:2])n1cc(CN[*:1])nn1].R.Y.[am]}$$$$V2.0)
- increase in the plasma concentration of LH (% of Comp.1 maximum stimulation) [3, 5]: more active than the comparative compounds Comp.1 and Comp.3
- duration of action (LH concentration over time) [3, 7]: sustained for longer over time than the comparative compounds Comp.1 and Comp.3

Molecule: CNC(=N)NCCC[C@H](NC(=O)[C@H](CC(C)C)n1cc(CNC(=O)[C@H](Cc2ccccc2)NC(=O)[C@H](CO)NC(=O)[C@H](CC(N)=O)NC(=O)[C@H](CCCCNC(C)=O)NC(=O)[C@H](CC(N)=O)NC(=O)[C@H](Cc2ccc(O)cc2)NC(C)=O)nn1)C(=O)N[C@@H](Cc1ccc(O)cc1)C(N)=O [Compound C4, Ac-Tyr-Asn-Lys(Ac)-Asn-Ser-Phe-GlyΨ[Tz]Leu-Arg(Me)-Tyr-NH2] (HELM PEPTIDE1{[ac].Y.N.K.N.S.F.[CC(C)C[C@@H](C(=O)[*:2])n1cc(CN[*:1])nn1].[CNC(=N)NCCC[C@H](N[*:1])C(=O)[*:2]].Y.[am]}|PEPTIDE2{[ac]}$PEPTIDE1,PEPTIDE2,4:R3-1:R2$$$V2.0)
- remaining at 3 h, 50 μM ([1]; serum): 59%
- increase in the plasma concentration of LH (% of Comp.1 maximum stimulation) [3, 5]: more active than the comparative compounds Comp.1 and Comp.3

Molecule: CCCCCCCCCCCCCCCC(=O)N[C@@H](CCC(=O)NCCCC[C@H](NC(=O)[C@H](Cc1ccc(O)cc1)NC(C)=O)C(=O)N[C@@H](Cc1c[nH]c2ccccc12)C(=O)N[C@@H](CC(N)=O)C(=O)N[C@@H](CO)C(=O)N[C@@H](Cc1ccccc1)C(=O)NCc1cn([C@@H](CC(C)C)C(=O)N[C@@H](CCCNC(=N)N)C(=O)N[C@@H](Cc2ccc(O)cc2)C(N)=O)nn1)C(=O)O [Compound C8, Ac-Tyr-Lys(γ-(N-hexadecanoyl-Glu-OH))-Trp-Asn-Ser-Phe-GlyΨ[Tz]Leu-Arg-Tyr-NH2] (HELM PEPTIDE1{[ac].Y.K.W.N.S.F.[CC(C)C[C@@H](C(=O)[*:2])n1cc(CN[*:1])nn1].R.Y.[am]}|PEPTIDE2{[CCCCCCCCCCCCCCCC(=O)[*:2]].[gGlu]}$PEPTIDE1,PEPTIDE2,3:R3-2:R2$$$V2.0)
- duration of action (LH concentration over time) ([3]; 3rd experiment, ewes in the anestrus period, 1, 5 and 15 nmol/ewe intravenous, FIGS. 8a, 8b): even further sustained over time, and very significantly, than the compound C2
- LH secretion (AUC) ([3]; 3rd experiment, ewes in the anestrus period, 1, 5 and 15 nmol/ewe intravenous, FIGS. 9a, 9b): even more active than the compound C2
- LH secretion into the plasma after intramuscular injection ([3]; 4th experiment, ewes in the estrus period, 15 nmol/ewe intramuscular versus intravenous, FIG. 10): also effective, in vivo, by intramuscular injection
